In data set [1] the target is T1, strychnine-insensitive Glycine receptor (Rattus norvegicus, UniProt P35439).
T1 construct: synaptic plasma membranes (SPM) prepared from rat forebrain; from tissue; host or cells: rat forebrain synaptic plasma membranes, male Sprague Dawley, 30-45 days old (animals from Sasco, St. Charles Mo.)
Description: [3H]Glycine binding inhibition, Triton-washed rat forebrain synaptic plasma membranes (SPM). The following applies: inhibition of 10 nM [3H]glycine binding, pH 7.4, 10 min at 2° C., nonspecific: 100 μM glycine, read-out: AFFINITY [3H]GLYCINE (Ki). How it is done:
(§1) [^3 H]Glycine binding was performed using Triton ×-100 washed synaptic plasma membranes (SPM) prepared from rat forebrain (30-45 day old, male Sprague Dawley; Sasco, St. Charles Mo.). The assay was initiated by the addition of 0.2-0.4 mg of SPM to an incubation containing 10 nM [^3 H]glycine (43.5 Ci/mmole; New England Nuclear, Boston Mass.), and various concentrations of the appropriate test compounds in a total volume of 1 ml, with all additions made in […] Tris/acetate, pH 7.4. Following a 10 min incubation at 2° C. the bound radioactivity was separated from the free by either centrifugation (12000 g for 25 min at 4° C.) or vacuum filtration through Whatman GF/B filters using a Brandel MB-18 Harvester. The Kd and Bmax values for [^3 H]glycine were similar using either separation technique. The radioactivity associated with the SPM was quantitated using liquid scintillation spectrometry. Ki values for the inhibition of [ ^3 H]glycine binding were determined using logit-log analysis, with nonspecific binding determined using 100 μM glycine. Modulation of [^3 H]TCP binding was performed using Triton ×-100 (0.04% v/v) treated rat SPM that had been extensively washed. Assay incubations were at 25° C. for 60 min and contained 5.0 nM [^3 H]TCP, and various concentrations of the test compound in 5 mM Tris/HCl, pH 7.4. The assay was stopped by rapid filtration, using a Brandel MB-48 Harvester, thru Whatman GF/B filters treated with 0.05% polyethylenimine and the samples washed four times with 2.0 mls cold buffer. Radioactivity associated with the filter was determined by liquid scintillation spectrometry as described above. Nonspecific binding was defined using 60 μM PCP.

Another data set addresses T2, NMDA receptor (Rattus norvegicus, UniProt P35439).
T2 construct: treated rat SPM that had been extensively washed; from tissue; host or cells: rat synaptic plasma membranes, Triton-treated and extensively washed
Description: Modulation of [3H]TCP binding, Triton-treated, extensively washed rat SPM (functional analysis, agonist/antagonist character). The class given is biochemical. The following applies: 1 h, 5.0 nM [3H]TCP, 25° C., 60 min, pH 7.4, % of maximal glycine stimulation, read-out: AG/ANTAG [3H]TCP % STIM. How it is done: as §1
*The stimulation of [^3 H]TCP binding (% STIM) was expressed as a […]

Data set [2] deals with bacterial methionine-γ-lyase. The following applies: M. Johnson et al., Biochemistry, 20, 4325-4333 (1981); cited from earlier work.
The subject of data set [3] is L-aspartate aminotransferase enzyme. Conditions: R. R. Rando, Nature, 250, 587-588 (1974); cited from earlier work.
The subject of data set [4] is strychnine-insensitive glycine receptor. The following applies: structure-activity relationships, literature; cited from earlier work.
In the next data set the test system is neurons. The following applies: J. W. Olney (1969); J. W. Olney et al. (1971); cited from earlier work.
The conditions of data set [5]: following milacemide administration; cited from earlier work.
A further data set relates to human subjects. Conditions: B. Saletu et al (1986); cited from earlier work.

On to `C/C=C/[C@H](N)C(=O)O` (stereo in doubt) [Compound 1, trans-L-2-amino-pent-3-enoic acid], for which, in data set [1], the Ki (as a rule, a measure of affinity in units of concentration, obtained from inhibition or displacement) was found to be 7.2 µM. In addition, the Emax at 40 µM on NMDA receptor (CONC 40 (μ)) worked out at 51%. In addition, in data set [2], the “inhibition of bacterial methionine-γ-lyase” value was “inhibition of bacterial methionine-γ-lyase”.

For the molecule `C/C=C/[C@@H](N)C(=O)O` (stereo in doubt) [Compound 2, trans-D-2-amino-pent-3-enoic acid], in data set [1], the Ki is 4.8 µM.

On to `CCC/C=C/[C@H](N)C(=O)O` (stereo in doubt) [Compound 3, trans-L-2-amino-hept-3-enoic acid], for which the Ki in data set [1] came out at 4.9 µM. Further, the Emax at 12 µM on NMDA receptor (CONC 12 (μ)) was 66%.

As to `CCC/C=C/[C@@H](N)C(=O)O` (stereo in doubt) [Compound 4, trans-D-2-amino-hept-3-enoic acid], the inhibition constant Ki in data set [1] came out at 1.8 µM.

In the case of `CCCCCC/C=C/[C@H](N)C(=O)O` (stereo in doubt) [Compound 5, trans-L-2-amino-dec-3-enoic acid], in data set [1], the inhibition constant Ki came to 0.95 µM. Moreover, the Emax at 30 µM at NMDA receptor (CONC 30 (μ)) came out at 78%.

As to `CCCCCC/C=C/[C@@H](N)C(=O)O` (stereo in doubt) [Compound 6, trans-D-2-amino-dec-3-enoic acid], in data set [1], the Ki came to 55 µM. Besides, the Emax at 100 µM on NMDA receptor (CONC 100 (μ)) was found to be 48%.

As for `N[C@H](/C=C/CCO)C(=O)O` (stereo in doubt) [Compound 7, trans-D-2-amino--6-hydroxy-hex-3-enoic acid], the inhibition constant Ki in data set [1] amounted to 0.28 µM. Further, at NMDA receptor (CONC 6 (μ)), the Emax at 6 µM worked out at 67%.

For the molecule `N[C@@H](/C=C/CCO)C(=O)O` (stereo in doubt) [Compound 8, trans-L-2-amino-6-hydroxy-hex-3-enoic acid], the inhibition constant (Ki) in data set [1] came to 0.77 µM.

For `CO/C=C/[C@H](N)C(=O)O` (stereo in doubt) [L-2-amino-4-methoxy-trans-3-butenoic acid], the “inhibition of L-aspartate aminotransferase” value in data set [3] was “irreversible inhibitor”.

`C[C@@H](N)C(=O)O` [D-alanine]: the “affinity at strychnine-insensitive glycine receptor (in words)” value in data set [4] is given as “highest affinities”.

As for `N[C@H](CO)C(=O)O` [D-serine], the “affinity at strychnine-insensitive glycine receptor (in words)” value in data set [4] was “highest affinities”.

`N[C@@H](CC(=O)O)C(=O)O` [aspartic, aspartic acid]: the “excitatory and excitotoxic properties” value in the data set with neurons is “both excitatory and excitotoxic properties”.

As to `N[C@@H](CCC(=O)O)C(=O)O` [glutamic acid], in the data set with neurons, the “excitatory and excitotoxic properties” value was “both excitatory and excitotoxic properties”.

As to `CCCCCNCC(N)=O` [milacemide], the brain glycine content entry in data set [5] is “increase in brain glycine content”. Further, the memory-enhancing capabilities result in the data set on human subjects is given as “memory-enhancing capabilities”.

Source of the values: patent US5208260A, “Vinyl Glycine derivatives for memory and learning enhancement or treatment of a cognitive disorder” (priority 1990, dated 1993).
